Legend:
[1] = biological target: T1, WRN helicase (aa N517-P1238) (Homo sapiens, UniProt Q14191); assay: WRN ATPase assay (DNA dependent ATP hydrolysis, ADP-Glo); format: biochemical; details: 3 hours pre-incubation, 300 micromolar ATP, FLAP26 DNA; geometric mean of at least 2
T1 construct: The core helicase motif of the WRN protein (aa N517-P1238) was produced for this assay; His (N); ZZ (N); 3C protease cleavage site (N); made in house; host or cells: Sf21 insect cells (baculovirus; virus and BIICs made in SF9)
T1 sequence (Q14191 517-1238): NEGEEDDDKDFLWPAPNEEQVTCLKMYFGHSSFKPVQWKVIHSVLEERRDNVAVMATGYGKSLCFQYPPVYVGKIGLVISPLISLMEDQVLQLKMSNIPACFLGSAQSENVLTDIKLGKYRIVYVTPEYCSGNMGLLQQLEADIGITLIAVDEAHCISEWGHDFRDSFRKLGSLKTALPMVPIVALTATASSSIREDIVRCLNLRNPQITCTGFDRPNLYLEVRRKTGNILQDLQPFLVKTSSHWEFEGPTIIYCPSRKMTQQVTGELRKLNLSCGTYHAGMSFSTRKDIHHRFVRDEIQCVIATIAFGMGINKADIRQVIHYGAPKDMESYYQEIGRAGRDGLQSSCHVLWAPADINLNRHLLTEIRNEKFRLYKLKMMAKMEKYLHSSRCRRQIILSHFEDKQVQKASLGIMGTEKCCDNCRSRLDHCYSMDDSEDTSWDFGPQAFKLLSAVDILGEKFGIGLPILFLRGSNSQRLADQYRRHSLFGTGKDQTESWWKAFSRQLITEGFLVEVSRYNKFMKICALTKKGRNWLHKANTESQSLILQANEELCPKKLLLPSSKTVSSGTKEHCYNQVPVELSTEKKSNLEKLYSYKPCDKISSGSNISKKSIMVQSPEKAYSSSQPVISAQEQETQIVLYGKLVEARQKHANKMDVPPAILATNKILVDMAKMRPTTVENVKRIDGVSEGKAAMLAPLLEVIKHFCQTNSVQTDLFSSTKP
How it was run: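 DNA-dependent ATP hydrolysis detected as ADP by ADP-Glo luminescence, using 300 μM ATP, 0.2 nM FLAP26 substrate and 10 nM WRN aa N517-P1238 (Tris pH 7.5 buffer, 2 mM MgCl2, 50 mM NaCl). IC50s fitted from normalized duplicate half-log dilutions; reported as geometric means of at least 2 replicates.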

SW48 cells = assay: Proliferation assay SW48 (CellTiterGlo); format: cell-based; details: Homo sapiens, SW48, 96 h, SW48 colon carcinoma cells, 96 hours, CellTiterGlo; geometric mean of at least 2; read-out: Proliferation Assay SW48 GI50
Description: The colon carcinoma cell lines SW48 (RRID: CVCL_1724), HCT 116 (RRID: CVCL_0291) and SNU-407 (RRID: CVCL_5058) were obtained from ATCC. The WRN-knockdown insensitive colon carcinoma cell line DLD-1 (RRID: CVCL_0248) was obtained from the Korean Cell Line Bank (KCLB), and used to generate a derivative in which the endogenous WRN gene copies were knocked out by CRISPR-mediated editing using standard CRISPR methods. The resulting cell line, DLD1-WRN-KO, was used to assess potential off-target compound effects.
SW48, SNU-407 and DLD1-WRN-KO cells were cultured in growth medium composed of RPMI-1640 (Amimed Cat #1-41F22-1), 2 mM L-Glutamine (Amimed Cat #5-10K50), 10 mM HEPES (Gibco Cat #15630-056), 1 mM sodium pyruvate (Amimed Cat #5-60F00-H), 1× Penicillin-Streptomycin (Amimed Cat #4-01F00-H) and 10% fetal calf serum (Amimed Cat #2-01F30-G, Lot #LB11566P). HCT 116 cells were cultured in growth medium composed of McCoys 5A (Amimed catalog #1-18F01-1), 2 mM L-Glutamine (Amimed Cat #5-10K50), 1× Penicillin-Streptomycin (Amimed Cat #4-01F00-H) and 10% fetal calf serum (Amimed Cat #2-01F30-G, Lot #LB11566P). All cells were maintained at 37° C. in a humidified 5% CO2 incubator.
Following filtration through a Steriflip-NY 20 μm filter (Millipore Cat #SCNY00020), trypsinized cells were seeded in 100 microliters growth medium at 2,000 (SW48) or 1,500 (SNU-407, DLD1-WRN-KO, HCT 116) cells/well into white, clear-bottom 96-well plates (Costar Cat #3903). Three replicate plates were prepared for each compound treatment condition. In addition, one plate (termed “day 0”) was prepared to quantify the number of viable cells at the time of compound addition. Following overnight incubation at 37° C. in a humidified 5% CO2 atmosphere, eight 3-fold serial dilutions of a given compound stock (obtained at a concentration of 10 mM in DMSO and stored at 4° C.) were dispensed directly into each of the triplicate assay plates using a HP 300D non-contact Digital Dispenser (TECAN). The final concentration of DMSO was normalized to 0.1% in all wells. 96 hours after compound addition, cellular ATP levels as a surrogate for cell viability was assessed following addition of 50 microliters CellTiterGlo (Promega Cat #G7573) reagent and luminescence quantification on a MPLEX multi-mode plate-reader (TECAN) following a 10 minute incubation at room temperature. The number of viable cells in the “day 0” plate were quantified identically on the day of compound addition.
For data analysis, the assay background signal that was determined in wells containing medium, but no cells, was subtracted from all other data points prior to further calculations. The extent of growth inhibition and potential cell kill was assessed by comparing the ATP levels (measured using CellTiterGlo, Promega) in compound-treated cells with those present at the time of compound addition. To this end, the following conditional concept was programmatically applied in HELIOS, an in-house software applying a multi-step decision tree to arrive at optimal concentration response curve fits (Gubler et al, SLAS DOI: 10.1177/2472555217752140) to calculate % growth (% G) for each compound-treated well: % G=(T−V0)/V0))*100 when T<V0, and % G=(T−V0)/(V−V0)))*100 when T≥V0, where V0 is the viability level at time of compound addition, while V and T represent vehicle-control and compound-treated viability levels, respectively, at the end of the compound incubation. 100%, 0% and −100% signify absence of growth inhibition, growth stasis, and complete cell kill, respectively. Compound concentrations leading to half-maximal growth inhibition (GI50) and residual cell viability at the highest tested compound concentration (Data (cmax), expressed in percent) were routinely calculated. Data analysis can also be carried out using commercially available software designed to derive IC50 values using 4-parameter fits (e.g. GraphPad Prism, XL fit). […]

DLD1-WRN-KO cells = assay: Proliferation assay DLD1-WRN-KO (CellTiterGlo, off-target effects); format: cell-based; details: 96 hours, geometric mean of at least 2
How it was run: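 DLD1 cells with CRISPR knockout of WRN were exposed overnight-seeded to eight 3-fold compound dilutions (0.1% DMSO) for 96 h at 37 °C. Viability was read as ATP by CellTiterGlo luminescence against a day-0 plate, giving GI50 and residual viability at top concentration.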

SMILES | IC50 [1] [µM] | GI50 (SW48 cells) [µM] | GI50 (DLD1-WRN-KO cells) [µM]
CC(=O)N1CCN(c2c(C)n(CC(=O)Nc3ccc(Cl)c(Cl)c3)c3nc(-c4ccc(CN(C)C(=O)OC5CC/C=C/CCC5)cc4)nn3c2=O)CC1 (stereo not drawn) [Example 102, (E)-cyclooct-4-en-1-yl (4-(6-(4-acetylpiperazin-1-yl)-4-(2-((3,4-dichlorophenyl)amino)-2-oxoethyl)-5-methyl-7-oxo-4,7-dihydro-[1,2,4]triazolo[1,5-a]pyrimidin-2-yl)benzyl)(methyl)carbamate] | > 3 | 7 | 5
Cc1ccnc(O)c1C(=O)N1CCN(c2c(C)n(CC(=O)Nc3ccc(C(F)(F)F)cc3)c3nc(C4=CCOCC4)nn3c2=O)CC1 [Example 27, 2-(2-(3,6-dihydro-2H-pyran-4-yl)-6-(4-(2-hydroxy-4-methylnicotinoyl)piperazin-1-yl)-5-methyl-7-oxo-[1,2,4]triazolo[1,5-a]pyrimidin-4(7H)-yl)-N-(4-(trifluoromethyl)phenyl)acetamide] | 0.3 | > 10 | > 10
Cc1c(N2CCN(C(=O)c3c(F)ccc(F)c3O)CC2)c(=O)n2nc(C3=CCOCC3)nc2n1CC(=O)Nc1ccc(C(F)(F)F)cc1 [Example 13, 2-(6-(4-(3,6-difluoro-2-hydroxybenzoyl)piperazin-1-yl)-2-(3,6-dihydro-2H-pyran-4-yl)-5-methyl-7-oxo-[1,2,4]triazolo[1,5-a]pyrimidin-4(7H)-yl)-N-(4-(trifluoromethyl)phenyl)acetamide] | 0.03 | 0.3 | > 10
CC(=O)N1CCN(c2c(C)n(CC(=O)Nc3cc(F)c(C(F)(F)F)nc3Cl)c3nc(C4=CCOCC4)nn3c2=O)CC1 [Example 101, 2-(6-(4-acetylpiperazin-1-yl)-2-(3,6-dihydro-2H-pyran-4-yl)-5-methyl-7-oxo-[1,2,4]triazolo[1,5-a]pyrimidin-4(7H)-yl)-N-(2-chloro-5-fluoro-6-(trifluoromethyl)pyridin-3-yl)acetamide] | 2 | 10 | > 10
Cc1c(N2CCN(C(=O)c3c[nH]c(=O)cn3)CC2)c(=O)n2nc(N3CCOCC3)nc2n1CC(=O)Nc1ccc(C(F)(F)F)cc1 [Example 166, 2-(5-methyl-2-morpholino-7-oxo-6-(4-(5-oxo-4,5-dihydropyrazine-2-carbonyl)piperazin-1-yl)-[1,2,4]triazolo[1,5-a]pyrimidin-4(7H)-yl)-N-(4-(trifluoromethyl)phenyl)acetamide] | 0.1 | > 10 | > 10
Cc1c(N2CCN(C(=O)c3cc(F)cnc3O)CC2)c(=O)n2nc(C3=CCOCC3)nc2n1CC(=O)Nc1ccc(C(F)(F)F)cc1 [Example 21, 2-(2-(3,6-dihydro-2H-pyran-4-yl)-6-(4-(5-fluoro-2-hydroxynicotinoyl)piperazin-1-yl)-5-methyl-7-oxo-[1,2,4]triazolo[1,5-a]pyrimidin-4(7H)-yl)-N-(4-(trifluoromethyl)phenyl)acetamide] | 0.1 | > 10 | > 10
CC(=O)N1CCN(c2c(C)n(CC(=O)Nc3ccc(C(F)(F)F)cc3)c3nc(N4CCC5(CCCO5)CC4)nn3c2=O)CC1 [Example 122, 2-(6-(4-acetylpiperazin-1-yl)-5-methyl-7-oxo-2-(1-oxa-8-azaspiro[4.5]decan-8-yl)-[1,2,4]triazolo[1,5-a]pyrimidin-4(7H)-yl)-N-(4-(trifluoromethyl)phenyl)acetamide] | 0.7 | 5 | > 10
CCc1c(C2CCN(C(C)=O)CC2)c(=O)n2nc(C3=CCCCO3)nc2n1CC(=O)Nc1ccc(C(F)(F)F)cc1 [Example 138, 2-(6-(1-acetylpiperidin-4-yl)-2-(3,4-dihydro-2H-pyran-6-yl)-5-ethyl-7-oxo-[1,2,4]triazolo[1,5-a]pyrimidin-4(7H)-yl)-N-(4-(trifluoromethyl)phenyl)acetamide] | 0.08 | 1 | > 10
CCc1c(N2CCN(C(=O)c3nn(C)c(=O)[nH]3)CC2)c(=O)n2nc(C3=CCC(OC)CC3)nc2n1CC(=O)Nc1ccc(C(F)(F)F)cc1 (stereo not drawn) [Example 53, 2-(5-ethyl-2-(4-methoxycyclohex-1-en-1-yl)-6-(4-(1-methyl-5-oxo-4,5-dihydro-1H-1,2,4-triazole-3-carbonyl)piperazin-1-yl)-7-oxo-[1,2,4]triazolo[1,5-a]pyrimidin-4(7H)-yl)-N-(4-(trifluoromethyl)phenyl)acetamide] | 0.06 | 0.8 | > 10
CC(=O)N1CCN(c2c(C)n(CC(=O)Nc3cc(F)c(C(F)(F)F)c(F)c3)c3nc(C4=CCOCC4)nn3c2=O)CC1 [Example 103, 2-(6-(4-acetylpiperazin-1-yl)-2-(3,6-dihydro-2H-pyran-4-yl)-5-methyl-7-oxo-[1,2,4]triazolo[1,5-a]pyrimidin-4(7H)-yl)-N-(3,5-difluoro-4-(trifluoromethyl)phenyl)acetamide] | 4 | 4 | > 10
CCc1c(N2CCN(C(C)=O)CC2)c(=O)n2nc(C3=CCOCC3)nc2n1CC(=O)Nc1ccc(C(F)(F)F)cc1C [Example 58, 2-(6-(4-acetylpiperazin-1-yl)-2-(3,6-dihydro-2H-pyran-4-yl)-5-ethyl-7-oxo-[1,2,4]triazolo[1,5-a]pyrimidin-4(7H)-yl)-N-(2-methyl-4-(trifluoromethyl)phenyl)acetamide] | 0.1 | 2 | > 10
Cc1c(N2CCN(C(=O)c3c(O)cccc3O)CC2)c(=O)n2nc(C3=CCOCC3)nc2n1CC(=O)Nc1ccc(C(F)(F)F)cc1 [Example 15, 2-(2-(3,6-dihydro-2H-pyran-4-yl)-6-(4-(2,6-dihydroxybenzoyl)piperazin-1-yl)-5-methyl-7-oxo-[1,2,4]triazolo[1,5-a]pyrimidin-4(7H)-yl)-N-(4-(trifluoromethyl)phenyl)acetamide] | 0.05 | 4 | > 10
CC(=O)N1CCN(c2c(C)n(CC(=O)Nc3ccc(C(F)(F)F)nc3Cl)c3nc(N4CCCC(F)C4)nn3c2=O)CC1 (stereo not drawn) [Example 5, 2-(6-(4-acetylpiperazin-1-yl)-2-(3-fluoropiperidin-1-yl)-5-methyl-7-oxo-[1,2,4]triazolo[1,5-a]pyrimidin-4(7H)-yl)-N-(2-chloro-6-(trifluoromethyl)pyridin-3-yl)acetamide] | 2 | 8 | > 10

Reference: US20260250289A1, “BICYCLIC HETEROCYCLES AND THEIR USE AS WRN INHIBITORS” (Novartis AG, priority 2022, published 2026)
